Results published in patent US20240109881A1, “Heteroaryl Compounds as Ligand Directed Degraders of IRAK4” (Bristol-Myers Squibb Company, priority 2022, published 2024).

Target: T1, IRAK4 (Homo sapiens, UniProt Q9NWZ3)
T1 construct: endogenous in cells; host or cells: THP-1 cells
T1 sequence (Q9NWZ3 1-460): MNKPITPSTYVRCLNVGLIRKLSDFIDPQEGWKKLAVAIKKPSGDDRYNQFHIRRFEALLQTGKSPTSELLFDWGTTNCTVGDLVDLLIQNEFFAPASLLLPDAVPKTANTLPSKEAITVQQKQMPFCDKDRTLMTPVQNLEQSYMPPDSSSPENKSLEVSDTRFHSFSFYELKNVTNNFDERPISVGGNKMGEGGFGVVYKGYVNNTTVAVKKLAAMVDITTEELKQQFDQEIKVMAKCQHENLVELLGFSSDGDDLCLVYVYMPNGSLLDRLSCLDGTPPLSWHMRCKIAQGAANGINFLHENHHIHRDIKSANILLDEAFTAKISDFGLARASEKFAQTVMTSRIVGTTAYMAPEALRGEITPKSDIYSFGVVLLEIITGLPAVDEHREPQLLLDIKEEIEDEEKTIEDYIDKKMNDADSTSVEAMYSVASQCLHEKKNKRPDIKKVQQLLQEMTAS
Assay: LVL THP1 HTRF (THP1 Homogeneous Time Resolved Fluorescence)
Type: cell-based
Conditions: THP1 cells, 18 h incubation with compound; for DC50: read-out: LVL THP1 HTRF EC50
Outline: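 THP-1 cells in phenol red-free RPMI with 10% FBS were dosed with compound (20 nL in DMSO) for 18 h at 37° C. After 2 h lysis, IRAK4 was detected with anti-IRAK4-d2/anti-IRAK4-K HTRF antibodies for 18 h at room temperature and read at 665/615 nm; a parallel CTG plate was run.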

C[C@H](C#N)Nc1cc(-n2ncc3cc(C#N)cnc32)ncc1-n1cc([C@H]2CC[C@H](CCN3CCC(c4ccc(N5CCC(=O)NC5=O)cc4)C(F)(F)C3)CC2)nn1 (single isomer, unassigned) [P-420]
LVL THP1 HTRF YMIN: 1.7% | DC50: 26.2 nM

C[C@H](C#N)Nc1cc(-n2ncc3cc(C#N)cnc32)ncc1-n1cc([C@H]2CC[C@H](CCN3CCC(F)(c4ccc([C@@]5(C)CCC(=O)NC5=O)cc4)CC3)CC2)nn1 (single isomer, unassigned) [P-424]
LVL THP1 HTRF YMIN: 5.3% | DC50: 1.9 nM

C[C@H](C#N)Nc1cc(-n2ncc3cc(C#N)cnc32)ncc1-n1cc([C@H]2CC[C@](O)(CCN3CCN(c4ccc([C@@]5(C)CCC(=O)NC5=O)cn4)CC3)CC2)nn1 (single isomer, unassigned) [P-426]
LVL THP1 HTRF YMIN: 41.0% | DC50: 1000 nM

C[C@H](C#N)Nc1cc(-n2ncc3cc(C#N)cnc32)ncc1C(=O)N[C@H]1CC[C@H](CCN2CC[C@H]3[C@@H]2CCN3c2ccc([C@@]3(C)CCC(=O)NC3=O)cc2)CC1 (single isomer, unassigned) [P-427]
LVL THP1 HTRF YMIN: 1.8% | DC50: 40.4 nM

C[C@H](C#N)Nc1cc(-n2ncc3cc(C#N)cnc32)ncc1-n1cc([C@H]2CC[C@](O)(CCN3CCN(c4ccc(N5CCC(=O)NC5=O)cc4)CC3)CC2)nn1 (single isomer, unassigned) [P-429]
LVL THP1 HTRF YMIN: 5.4% | DC50: 59.4 nM

C[C@H](C#N)Nc1cc(-n2ncc3cc(C#N)cnc32)ncc1C(=O)N[C@H]1CC[C@H](CCN2CCC(c3ccc([C@@]4(F)CCC(=O)NC4=O)cc3)CC2)CC1 (single isomer, unassigned) [P-430]
LVL THP1 HTRF YMIN: −0.4% | DC50: 5.5 nM

C[C@H](C#N)Nc1cc(-n2ncc3cc(C#N)cnc32)ncc1-n1cc([C@H]2CC[C@H](CCN3CC[C@H]4[C@@H]3CCN4c3ccc([C@@]4(C)CCC(=O)NC4=O)cn3)CC2)nn1 (single isomer, unassigned) [P-435]
LVL THP1 HTRF YMIN: 52.3% | DC50: 123 nM

C[C@H](C#N)Nc1cc(-n2ncc3cc(C#N)c(N)nc32)ncc1-n1cc([C@H]2CC[C@H](CCN3CC[C@H]4[C@@H]3CCN4c3ccc([C@@]4(C)CCC(=O)NC4=O)cc3)CC2)nn1 (single isomer, unassigned) [P-453]
LVL THP1 HTRF YMIN: 0.6% | DC50: 4.6 nM

C[C@H](C#N)Nc1cc(-n2ncc3cc(C#N)cnc32)ncc1-n1cc([C@H]2CC[C@H](CCN3CC[C@H]4[C@@H]3CCN4c3ccc([C@@]4(C)CCC(=O)NC4=O)cc3)CC2)nn1 (single isomer, unassigned) [P-454]
LVL THP1 HTRF YMIN: 1.1% | DC50: 13.6 nM

C[C@H](C#N)Nc1cc(-n2ncc3cc(C#N)cnc32)ncc1-n1cc([C@H]2CC[C@H](CCN3CC[C@H]4[C@@H]3CCN4c3ccc(N4CCC(=O)NC4=O)c(F)c3)CC2)nn1 (single isomer, unassigned) [P-461]
LVL THP1 HTRF YMIN: 5.4% | DC50: 3.7 nM

C[C@H](C#N)Nc1cc(-n2ncc3cc(C#N)cnc32)ncc1-n1cc([C@H]2CC[C@H](CCN3CC[C@H]4[C@@H]3CCN4c3ccc([C@@]4(C)CCC(=O)NC4=O)cc3)CC2)nn1 (single isomer, unassigned) [P-462]
LVL THP1 HTRF YMIN: 3.3% | DC50: 6.1 nM

C[C@H](C#N)Nc1cc(-n2ncc3cc(C#N)cnc32)ncc1-n1cc([C@H]2CC[C@H](CCN3CC[C@H]4[C@@H]3CCN4c3ccc(N4CCC(=O)NC4=O)c(Cl)c3)CC2)nn1 (single isomer, unassigned) [P-464]
LVL THP1 HTRF YMIN: −7.1% | DC50: 0.7 nM

Cc1cc(N2CC[C@H]3[C@@H]2CCN3CC[C@H]2CC[C@H](c3cn(-c4cnc(-n5ncc6cc(C#N)cnc65)cc4N[C@H](C)C#N)nn3)CC2)ccc1N1CCC(=O)NC1=O (single isomer, unassigned) [P-470]
LVL THP1 HTRF YMIN: 10.6% | DC50: 29.7 nM

Cc1cc(N2CC[C@H]3[C@@H]2CCN3CC[C@H]2CC[C@H](c3cn(-c4cnc(-n5ncc6cc(C#N)cnc65)cc4N[C@H](C)C#N)nn3)CC2)ccc1N1CCC(=O)NC1=O (single isomer, unassigned) [P-474]
LVL THP1 HTRF YMIN: 5.0% | DC50: 70 nM

C[C@H](C#N)Nc1cc(-n2ncc3cc(C#N)cnc32)ncc1-n1cc([C@H]2CC[C@H](CCN3CC[C@H]4[C@@H]3CCN4c3ccc(N4CCC(=O)NC4=O)c(Cl)c3)CC2)nn1 (single isomer, unassigned) [P-478]
LVL THP1 HTRF YMIN: 17.1% | DC50: 161 nM

C[C@H](C#N)Nc1cc(-n2ncc3cc(C#N)cnc32)ncc1-n1cc([C@H]2CC[C@H](CCN3CC[C@H]4[C@@H]3CCN4c3ccc(N4CCC(=O)NC4=O)c(F)c3)CC2)nn1 (single isomer, unassigned) [P-480]
LVL THP1 HTRF YMIN: 0.8% | DC50: 26 nM

C[C@H](C#N)Nc1cc(-n2ncc3cc(C#N)c(N)nc32)ncc1-n1cc([C@H]2CC[C@H](CCN3CC[C@H]4[C@@H]3CCN4c3ccc([C@@]4(C)CCC(=O)NC4=O)cc3)CC2)nn1 (single isomer, unassigned) [P-487]
LVL THP1 HTRF YMIN: 2.7% | DC50: 8 nM

C[C@H](C#N)Nc1cc(-n2ncc3cc(C#N)cnc32)ncc1C(=O)N[C@H]1CC[C@@H](CCN2CC[C@H]3[C@@H]2CCN3c2ccc(N3CCC(=O)NC3=O)c(Cl)c2)CC1 (single isomer, unassigned) [P-488]
LVL THP1 HTRF YMIN: 41.7% | DC50: 4440 nM

C[C@H](C#N)Nc1cc(-n2ncc3cc(C#N)cnc32)ncc1-n1cc([C@H]2CC[C@H](CCN3CCC(c4ccc(N5CCC(=O)NC5=O)cc4)C3)CC2)nn1 (single isomer, unassigned) [P-491]
LVL THP1 HTRF YMIN: 14.9% | DC50: 156 nM

C[C@H](C#N)Nc1cc(-n2ncc3cc(C#N)cnc32)ncc1C(=O)N[C@H]1CC[C@H](CCN2CC[C@H]3[C@@H]2CCN3c2ccc([C@@]3(C)CCC(=O)NC3=O)cc2)CC1 (single isomer, unassigned) [P-492]
LVL THP1 HTRF YMIN: −0.2% | DC50: 35 nM

C[C@H](C#N)Nc1cc(-n2ncc3cc(C#N)cnc32)ncc1-n1cc([C@H]2CC[C@H](CCN3CC[C@H]4[C@@H]3CN4c3ccc(N4CCC(=O)NC4=O)cc3)CC2)nn1 (single isomer, unassigned) [P-494]
LVL THP1 HTRF YMIN: 21.2% | DC50: 110 nM

C[C@H](C#N)Nc1cc(-n2ncc3cc(C#N)cnc32)ncc1-n1cc([C@H]2CC[C@H](CCN3CC[C@@H]4[C@H]3CN4c3ccc(N4CCC(=O)NC4=O)cc3)CC2)nn1 (single isomer, unassigned) [P-495]
LVL THP1 HTRF YMIN: 2.7% | DC50: 110 nM

C[C@H](C#N)Nc1cc(-n2ncc3cc(C#N)cnc32)ncc1-n1cc([C@H]2CC[C@H](CCN3CCC(c4ccc(N5CCC(=O)NC5=O)cc4)C3)CC2)nn1 (single isomer, unassigned) [P-497]
LVL THP1 HTRF YMIN: 13.6% | DC50: 239 nM

C[C@H](C#N)Nc1cc(Nc2ncc(C#N)cc2Cl)ncc1-n1cc([C@H]2CC[C@H](CCN3CC[C@H]4[C@@H]3CCN4c3ccc(N4CCC(=O)NC4=O)cc3)CC2)nn1 (single isomer, unassigned) [P-500]
LVL THP1 HTRF YMIN: −0.52% | DC50: 43.4 nM

C[C@H](C#N)Nc1cc(Nc2ncc(C#N)cc2Cl)ncc1-n1cc([C@H]2CC[C@H](CCN3CCN(c4ccc(N5CCC(=O)NC5=O)cc4)[C@@H]4COC[C@@H]43)CC2)nn1 (single isomer, unassigned) [P-503]
LVL THP1 HTRF YMIN: 82.16% | DC50: 1000 nM
